Values quoted from earlier work as cited in EP2136625B1, “USE OF A MEANS FOR THE SI[…] WEEDS, ALGAE, PHYTOPATHOGENIC BACTERIA, FUNGI, VIRUSES AND VIROIDS” (priority 2007, dated 2008).

Conditions: Methode EPA-FIFRA, Sonnenbarsch, 46 d

CCCCCCCCCC[N+](C)(C)CCCCCCCCCC.[Cl-] [DDAC, Didecyldimethylammoniumchlorid]
BCF: 81
